From patent US20200376068A1, “PROTECTION OF NORMAL TISSUE IN CANCER TREATMENT” (THOMAS JEFFERSON UNIVERSITY, priority 2017, published 2020)
Bridge positions count the residues as written; N and C are the ends. Ends that are not written are not given here. Peptide text beside a SMILES is read from it.

What was measured:
Grp78 (BiP) = experiment: Crypt ER stress, Grp78 (BiP) expression; format: in vivo, mouse; conditions: Gucy2c−/− mice
Protocol: (§1) Gucyc^−/− (Glucy2^ctm1Gar[63]), Lgr5-EGFP-CreERT2 (B6.129P2-Lgr5^tm1(cre/ERT2)Cle/J; Jax, Bar Harbor, Me., #008875) and Rosa-STOP^fl-LacZ (B6.129S4-Gt(ROSA)26Sor^tm1Sor/J; Jax #003474) transgenic mouse lines were interbred to generate offspring with the desired alleles. All mice were co-housed and Gucy2c^+/+ (wild type) littermates with the appropriate alleles were used as controls. Tissues were harvested from adult mice (12-16 wk of age). Cre was induced with a single 200 μL dose of tamoxifen (Sigma; Billerica, Mass.; T5648) in sunflower oil at 10 mg/ml. Tauroursodeoxycholic Acid (TUDCA, Millipore 580549) treatments were administered daily for 3 d at 100 mg/kg/day intraperitoneally. Mice were exposed to a single 10 Gy dose of whole-body γ-irradiation with a PanTak, 310 kVe x-ray machine and tissues were harvested at noted time points after irradiation. In some experiments, mice were gavaged daily for 7 d with 100 μL of 20 mM 8-cpt-cGMP. Each point in a graph (n) represents one mouse unless otherwise noted. All animal protocols were approved by the Thomas Jefferson University Institutional
Intestines were harvested from mice, fixed in formalin, and embedded in paraffin as previously described. […] At least 4 intestinal circumference sections were evaluated per mouse.

[1] = system: intestinal stem cells (ISCs); experiment: Quantification of crypt Lgr5+GFP+ and Bmi1+ stem cells in Gucy2c−/− mice; format: in vivo, mouse
Protocol: as §1
Intestines were harvested from mice, fixed in formalin, and embedded in paraffin as previously described. Sections (4 μM) were cut then rehydrated in a sequential ethanol-to-water bath and stained with hematoxylin and eosin or antigen-specific primary and secondary antibodies. Primary antibodies for immunofluorescence included: anti-GFP, anti-Bmi1, and anti-GRP78 (Abcam; Cambridge, M A); anti-phospho VASP Ser239 (Sigma; Billerica, Mass.); and anti-GUCY2C (prepared and validated in-house). Secondary antibodies were from Life Technologies (Waltham, Mass.) and specific to the primary hosts. Tyramide signal amplification was used to detect GUCY2C; secondary antibodies conjugated to horseradish peroxidase were from Jackson immunoresearch Laboratories (cat #115-035-206 and #111-036-046, 1:1000 dilution), and fluorescein-conjugated tyramine was prepared from tyramine HCl (cat #T2879, Sigma) and NHS-fluorescein (cat #46410, Thermo Scientific) as described. For visualization of Rosa-LacZ lineage tracing, tamoxifen-induced recombinant Cre intestines were prepared as described previously. At least 4 intestinal circumference sections were evaluated per mouse.

[2] = biological target: guanylate cyclase (ST receptors) (Homo sapiens, UniProt P25092); conditions: relative to native ST; cited from earlier work
p53 = experiment: Immunoblot of total and phosphorylated p53 in irradiated HCT116 cells; format: cell-based, human; conditions: 5 Gy radiation, 500 μM
HCT116 p53-null cells [3] = experiment: Anaphase bridge index and aneuploidy after 5 Gy; format: cell-based, human; conditions: pretreatment 500 μM
Protocol: (§2) Cells preconditioned with 8-Br-cGMP, or control cells, were irradiated (5 Gy), then seeded on coverslips in 24-well plates (5×10^4 cells per well). ABI and aneuploidy were quantified 2 d after irradiation.
(§3) ABI: Cells were fixed in 4% PFA and stained with DAPI. Anaphase cells were analyzed and abnormal anaphase cells were calculated under a fluorescence microscope. More than 200 anaphase cells were analyzed in each treatment group in each independent experiment. Any abnormal anaphase cells with anaphase bridges or anaphase lag showing extended chromosome bridging between two spindle poles were enumerated and the ABI was calculated as percentage of abnormal anaphase cells over total anaphase cells.
(§4) Aneuploidy: Cells were fixed in 4% PFA and stained with DAPI, and immunofluorescence stains were performed using α/β-tubulin-specific antibodies and […] γ-tubulin antibodies, detected with Alexa Fluor® 555 or Alexa Fluor® 488 labeled secondary antibodies from Invitrogen. […] Abnormal anaphase chromatids were counted if cells contained more than two centrosomes or two centrosomes located in the same direction to the spindle midzone separated from kinetochores at the poles.

p53-Mdm2 interaction = experiment: Immunoprecipitation of p53-Mdm2 in irradiated HCT116 cells; format: cell-based, human; conditions: 5 Gy radiation, IP and Western Blot
Protocol: McCoy's 5A and Dulbecco's Modified Eagle Medium (DMEM) containing 10% fetal bovine serum and other reagents for cell culture were obtained from Life Technologies (Rockville, Md.). 8-Bromoguanosine 3′, 5′-cyclic monophosphate (8-Br-cGMP), a cell-permeant analog of cGMP, was obtained from Sigma (St. Louis, Mo.) and 500 μM was used in all experiments (18,20,25,26,34).
Mouse IgG (5 μg, cat. #10400C, Invitrogen) and rabbit IgG (5 μg, cat. #10400C, Invitrogen) were isotype controls for immunoprecipitation.

HCT116 p53-null cells [4] = experiment: Colony formation assay after irradiation; format: cell-based, human; conditions: 0-4 Gy, 500 μM, vs PBS
Protocol: (§5) HCT116 and HCT116 p53-null cells were plated in 6-well dishes at 1×10^4 cells/well followed by treatment for 7 d with vehicle or cell permeable cGMP (8-Br-cGMP, 500 μM). Media containing different treatments were changed every other day. After exposure to radiation (0-4 Gy) cells were trypsinized and plated in 6-well dishes at different densities depending on the potency of the treatments (10^4 cells/well for HCT116 exposed at 0, 1 and 2 Gy; 4×10^4 cells/well for HCT116 p53-null exposed at 0, 1 and 2 Gy; 50×10^4 cells/well for HCT116 exposed at 3 and 4 Gy; 200×10^4 cells/well for HCT116 p53-null exposed at 3 and 4 Gy). […] The number of colonies, defined as >50 cells/colony were counted, and the surviving fraction was calculated as the ratio of the number of colonies in the treated sample to the number of colonies produced by cells that were not irradiated. […]
(§6) Statistical significance was determined by unpaired two-tailed Student's t test unless otherwise indicated. […] Survival and disease-free survival were analyzed by Kaplan-Meier analysis. Body weight was analyzed using a frailty model combining a segmented linear longitudinal model of body weight, a log-normal model for survival time, and a log-normal model for random break point for body weight (inflection point). […] Colony formation was analyzed by a pairwise comparison in four treatments with isotherm slopes by linear regression.

HCT116 cells (parental) = experiment: Colony formation assay after irradiation; format: cell-based, human; conditions: parental HCT116, 0-4 Gy, 500 μM for 7 d before and after irradiation, vs PBS
Protocol: as §5, §6

[5] = system: HCT116 human colon carcinoma cells (parental); experiment: Anaphase bridge index and aneuploidy after 5 Gy; format: cell-based; conditions: pretreatment 500 μM
Protocol: as §2, §3, §4

[6] = cited from earlier work
[7] = system: patients with irritable bowel syndrome; conditions: oral; cited from earlier work
[8] = system: irradiated intestinal tissue; conditions: mice lacking genes encoding GCC or uroguanylin; cited from earlier work
intestinal crypts = experiment: Ex vivo enteroid formation from crypts; format: cell-based, mouse; conditions: crypts of Gucy2c+/+ mice, oral linaclotide
Protocol: Crypt isolation for subsequent analyses (enteroid assay, florescence-activated cell sorting (FACS), immunoblot) was performed using a variation of the chelation dissociation method. Briefly, intestines were harvested, villi were gently scraped off for the small intestine, and tissues were minced and incubated in a 10 mM EDTA/Ca-free, Mg-free Hank's Balanced Salt Solution (HBSS) on ice for a total of 40 min, Throughout this time, solutions were intermittently shaken by hand at the speed of two shakes/second, supernatant was disposed a total of six times, and fresh EDTA/HBSS was added after each disposal. Tissue was incubated undisturbed for 30 min on ice followed by vigorous pipetting with a 10 mL pipet to dissociate the remaining crypts. Crypts were filtered through a […] strainer and pelleted. For enteroid culture, the same number of crypts for each genotype (ranging from 300-1500 crypts/well) were resuspended in a matrigel droplet (BD, 354230), pipetted briefly with a 1000 μL micropipette, plated in 30 μL, and overlaid with 350 μL of intesticult media (Stem Cell Technologies, Vancouver. Canada: 06005). For FACS, crypts were incubated in 0.25% trypsin (Thermo Scientific, Philadelphia, Pa.; 15050065) at 37° C. until a single cell suspension was obtained (not more than 10 min). Cells were then filtered a second time using a 40 μM strainer and kept in EDTA solution for sorting.

Chain of guanylate cyclase (ST receptors) (P25092 24-1073): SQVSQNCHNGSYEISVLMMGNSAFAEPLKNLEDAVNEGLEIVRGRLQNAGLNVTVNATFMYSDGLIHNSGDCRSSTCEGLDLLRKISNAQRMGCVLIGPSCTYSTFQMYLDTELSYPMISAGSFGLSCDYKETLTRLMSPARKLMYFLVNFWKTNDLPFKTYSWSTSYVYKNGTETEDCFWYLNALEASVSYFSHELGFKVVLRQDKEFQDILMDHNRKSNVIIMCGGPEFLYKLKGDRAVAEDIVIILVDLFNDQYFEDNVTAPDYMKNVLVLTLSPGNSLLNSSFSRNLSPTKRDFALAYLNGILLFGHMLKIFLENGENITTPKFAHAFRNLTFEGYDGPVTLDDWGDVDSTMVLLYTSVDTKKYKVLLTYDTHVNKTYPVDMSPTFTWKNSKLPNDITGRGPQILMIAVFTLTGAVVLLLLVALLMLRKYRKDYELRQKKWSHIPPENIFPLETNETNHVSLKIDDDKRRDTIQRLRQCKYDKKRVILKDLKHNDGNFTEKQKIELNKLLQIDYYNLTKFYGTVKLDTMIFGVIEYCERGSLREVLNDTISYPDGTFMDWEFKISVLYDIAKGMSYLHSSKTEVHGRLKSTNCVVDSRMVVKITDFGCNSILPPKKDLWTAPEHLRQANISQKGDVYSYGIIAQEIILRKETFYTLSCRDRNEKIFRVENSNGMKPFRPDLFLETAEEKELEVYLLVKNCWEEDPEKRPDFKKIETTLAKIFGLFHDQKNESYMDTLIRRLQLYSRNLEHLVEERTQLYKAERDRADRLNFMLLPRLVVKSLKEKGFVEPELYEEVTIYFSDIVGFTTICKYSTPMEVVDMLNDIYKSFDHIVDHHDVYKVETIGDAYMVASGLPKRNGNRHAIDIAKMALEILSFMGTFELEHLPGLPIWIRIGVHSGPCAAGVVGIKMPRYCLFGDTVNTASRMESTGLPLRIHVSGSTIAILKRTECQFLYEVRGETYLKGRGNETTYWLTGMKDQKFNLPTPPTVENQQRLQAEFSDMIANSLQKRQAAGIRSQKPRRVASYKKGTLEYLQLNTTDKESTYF

C[C@H](CCC(=O)NCCS(=O)(=O)O)[C@H]1CC[C@H]2[C@@H]3[C@@H](O)C[C@@H]4C[C@H](O)CC[C@]4(C)[C@H]3CC[C@]12C [TUDCA, tauroursodeoxycholic acid]
BiP (Grp78) expression in crypts (Grp78 (BiP)): restored normal BiP expression
Bmi1+ cells in crypts [1]: restored
Lgr5+GFP+ cells in crypts [1]: restored

Guanylin: 15 amino acid peptide from mammalian intestine, about 50% sequence homology to ST; endogenous GCC agonist (PGTCEICAYAACTGC; ends and bridges not checked; cysteine pairing not given here; UniProt Q02747 101-115, looked up)
activates guanylate cyclase at a level less than native ST [2]: 10- to 100 fold

Nc1nc2c(nc(Br)n2[C@@H]2O[C@@H]3COP(=O)(O)O[C@H]3[C@H]2O)c(=O)[nH]1 [8-Br-cGMP, 8-Bromoguanosine 3′, 5′-cyclic monophosphate]
phosphorylated p53 (p53): increased
total p53 (p53): increased
chromosomal instability quantified by anaphase bridge index (HCT116 p53-null cells [3]): insensitive
chromosomal instability quantified by centrosome counts (aneuploidy) (HCT116 p53-null cells [3]): insensitive
p53-Mdm2 interaction (p53-Mdm2 interaction): disrupting
p53 activation (p53-Mdm2 interaction): increased
BiP (Grp78) expression in crypts (Grp78 (BiP)): mimicked
cytogenetic toxicity induced by increasing doses of radiation, quantified by colony formation (HCT116 p53-null cells [4]): not significant
cytogenetic toxicity induced by increasing doses of radiation, quantified by colony formation (HCT116 cells (parental)): reduced
Bmi1+ cells in crypts [1]: comparable to those in Gucy2c^+/+ mice
Lgr5+GFP+ cells in crypts [1]: comparable to those in Gucy2c^+/+ mice
chromosomal instability quantified by anaphase bridge index [5]: reduced
chromosomal instability quantified by centrosome counts (aneuploidy) [5]: reduced

CC(C)C[C@H](NC(=O)[C@@H]1CSSC[C@@H]2NC(=O)[C@H](CC(C)C)NC(=O)[C@H](CCC(=O)O)NC(=O)[C@@H](NC(=O)[C@H](CCC(=O)O)NC(=O)[C@H](CC(=O)O)NC(=O)[C@@H](N)CC(N)=O)CSSC[C@H](NC(=O)[C@H](C)NC(=O)[C@H](C(C)C)NC(=O)[C@H](CC(N)=O)NC(=O)[C@H](C(C)C)NC2=O)C(=O)N[C@@H]([C@@H](C)O)C(=O)NCC(=O)N1)C(=O)O [plecanatide] (H-NDECELCVNVACTGCL-OH; disulfide 4-12, 7-15)
oral bioavailability or bioactivity outside the GI tract [6]: negligible
abdominal pain [7]: relieve
constipation [7]: improve

cGMP
level of apoptosis in irradiated intestinal tissue [8]: ameliorated

C[C@@H]1NC(=O)[C@@H]2CCCN2C(=O)[C@H](CC(N)=O)NC(=O)[C@@H]2CSSC[C@H](N)C(=O)N[C@H]3CSSC[C@H](NC1=O)C(=O)N[C@@H]([C@@H](C)O)C(=O)NCC(=O)N[C@H](C(=O)N[C@@H](Cc1ccc(O)cc1)C(=O)O)CSSC[C@H](NC(=O)[C@H](Cc1ccc(O)cc1)NC(=O)[C@H](CCC(=O)O)NC3=O)C(=O)N2 [linaclotide] (H-CCEYCCNPACTGCY-OH; disulfide 1-6, 2-10, 5-13)
oral bioavailability or bioactivity outside the GI tract [6]: negligible
abdominal pain [7]: relieve
constipation [7]: improve
efficiency of enteroid formation (intestinal crypts): amplified
